{
  "source": "patent US5028730A",
  "about": "“Antihypercholesterolemic nitrile compounds” (Bristol-Myers Company, priority 1990, dated 1991)",
  "molecular_target": "T1, microsomal form of rat liver HMG-CoA reductase (Rattus norvegicus, UniProt P51639)",
  "T1 construct": "from tissue; host or cells: rat liver microsomes",
  "T1 sequence (P51639 1-887)": "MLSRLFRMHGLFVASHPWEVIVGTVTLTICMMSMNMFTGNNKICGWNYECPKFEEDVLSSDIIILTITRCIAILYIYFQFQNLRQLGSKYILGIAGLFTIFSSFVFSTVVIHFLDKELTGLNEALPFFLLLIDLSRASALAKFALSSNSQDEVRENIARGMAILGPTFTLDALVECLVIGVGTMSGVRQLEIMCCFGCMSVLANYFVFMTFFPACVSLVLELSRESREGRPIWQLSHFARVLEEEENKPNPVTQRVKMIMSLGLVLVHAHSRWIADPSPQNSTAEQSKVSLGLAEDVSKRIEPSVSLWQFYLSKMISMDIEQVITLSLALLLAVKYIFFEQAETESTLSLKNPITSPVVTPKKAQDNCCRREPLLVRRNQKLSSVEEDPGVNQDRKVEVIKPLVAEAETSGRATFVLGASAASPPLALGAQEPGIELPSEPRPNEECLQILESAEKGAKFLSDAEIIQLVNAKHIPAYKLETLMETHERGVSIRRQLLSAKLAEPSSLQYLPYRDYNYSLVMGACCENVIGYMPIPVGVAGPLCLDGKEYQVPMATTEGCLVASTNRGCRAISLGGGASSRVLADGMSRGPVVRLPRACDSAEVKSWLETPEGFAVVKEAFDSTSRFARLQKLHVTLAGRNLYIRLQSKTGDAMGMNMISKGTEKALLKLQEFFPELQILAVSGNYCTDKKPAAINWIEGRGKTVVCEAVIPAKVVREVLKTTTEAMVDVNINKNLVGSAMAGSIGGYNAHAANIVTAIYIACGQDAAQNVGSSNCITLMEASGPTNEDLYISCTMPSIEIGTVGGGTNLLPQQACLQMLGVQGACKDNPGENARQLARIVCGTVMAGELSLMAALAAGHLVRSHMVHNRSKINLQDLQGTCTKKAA",
  "experiment": "In Vitro Inhibition of Microsomal HMG-CoA Reductase",
  "type": "biochemical",
  "details": "50 percent inhibitory concentration, rat liver microsomes, [3-14C]-HMG-CoA 0.33 mM, NADPH 3.0 mM, pH 7.2, at least 4 dilutions in duplicate",
  "experimental": "The intact, fully activated microsomal form of rat liver HMG-CoA reductase (subunit MW ca 100,000 daltons) was prepared as described by Parker, et al., Biochem. Biophys. Res. Commun., 125, 629-635 (1984), and used as the source of enzyme for assays. HMG-CoA reductase activity was determined essentially by the method of Shapiro, et al., Biochem. Biophys. Acta., 370, 369-377 (1974), with modifications as described by Ingebritsen and Gibson, Meth. Enzymol, 71, 486-497 (1981) with the exception that the internal standard ^3 H-mevalonolactone is added after termination of the assay. […]\nTo measure reductase inhibition, test compounds dissolved in water or dimethylsulfoxide and diluted in buffer A (50 mM imidazole-HCl, 250 mM NaCl, 1 mM EDTA, 1 mM EGTA, 5 mM DTT, 20 μM leupeptin, pH=7.2) were incubated with aliquots of microsomes (80-160 μg protein in buffer A) followed by addition of d,1-[3-^14 C]-HMG-CoA (0.33 mM, 2.0 dpm/picomole) and NADPH (3.0 mM). The 50 percent inhibitory concentration (IC50) for each compound in Table 1 was calculated from the linear regression line of the percent decrease (from control) in enzyme activity vs. log concentration of inhibitor, determined using at least 4 dilutions of each test compound assayed in duplicate.",
  "data": [
    {"smiles": "N#CC(/C=C/[C@H]1C[C@H](O)CC(=O)O1)=C(c1ccc(F)cc1)c1ccc(F)cc1", "note": "(relative stereo) [Example 8, Trans-(E)-2-[bis(4-fluorophenyl)methylene]-4-(tetrahydro-4-hydroxy-6-oxo-2H-pyran-2-yl)-3-butenenitrile]", "values": [
      {"measurement": "IC50", "value": 26, "unit": "µM"}
    ]},
    {"smiles": "N#CC(/C=C/[C@@H](O)C[C@@H](O)CC(=O)O)=C(c1ccc(F)cc1)c1ccc(F)cc1", "note": "(relative stereo) [Example 7, Sodium (±)-(E)-erythro-8-cyano-9,9-bis(4-fluorophenyl)-3,5-dihydroxy-6,8-nonadienoate]", "values": [
      {"measurement": "IC50", "value": 8, "unit": "µM"}
    ]}
  ]
}
